Source: PubChem BioAssay (NCI)
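Each compound was tested at five concentrations against cells in 96-well plates for 48 hours. The concentration for 50% growth inhibition is given as GI50. TGI marks complete inhibition of growth.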

Legend:
Test in all cases: inhibition of tumour cell growth, NCI panel, 48 h
[1] = test system: 786-0 renal
[2] = test system: A498 renal
[3] = test system: A549 NSCLC
[4] = test system: ACHN renal
[5] = test system: BT-549 breast
[6] = test system: CAKI-1 renal
[7] = test system: CCRF-CEM leukemia
[8] = test system: COLO 205 colon
[9] = test system: DU-145 prostate
[10] = test system: HCC-2998 colon
[11] = test system: HCT-116 colon
[12] = test system: HCT-15 colon
[13] = test system: HL-60(TB) leukemia
[14] = test system: HOP-62 NSCLC
[15] = test system: HOP-92 NSCLC
[16] = test system: HS 578T breast
[17] = test system: HT29 colon
[18] = test system: IGROV1 ovarian
[19] = test system: KM12 colon
[20] = test system: LOX IMVI melanoma
[21] = test system: M14 melanoma
[22] = test system: MALME-3M melanoma
[23] = test system: MCF7 breast
[24] = test system: MDA-MB-231 breast
[25] = test system: MDA-MB-435
[26] = test system: MOLT-4 leukemia
[27] = test system: NCI-H226 lung
[28] = test system: NCI-H23 lung
[29] = test system: NCI-H460 lung
[30] = test system: NCI-H522 lung
[31] = test system: NCI/ADR-RES ovarian
[32] = test system: OVCAR-3 ovarian
[33] = test system: OVCAR-4 ovarian
[34] = test system: OVCAR-5 ovarian
[35] = test system: OVCAR-8 ovarian
[36] = test system: PC-3 prostate
[37] = test system: RPMI-8226 leukemia
[38] = test system: RXF 393 renal
[39] = test system: SF-268 CNS
[40] = test system: SF-295 CNS
[41] = test system: SF-539 CNS
[42] = test system: SK-MEL-28 melanoma
[43] = test system: SK-MEL-5 melanoma
[44] = test system: SK-OV-3 ovarian
[45] = test system: SN12C renal
[46] = test system: SNB-19 CNS
[47] = test system: SNB-75 CNS
[48] = test system: SR leukemia
[49] = test system: SW-620 colon
[50] = test system: T-47D breast
[51] = test system: TK-10 renal
[52] = test system: U251 CNS
[53] = test system: UACC-257 melanoma
[54] = test system: UACC-62 melanoma
[55] = test system: UO-31 renal
[56] = test system: EKVX NSCLC
[57] = test system: K-562 leukemia
[58] = test system: SK-MEL-2 melanoma

Compound: Cc1ccc(S(=O)(=O)c2c(COC(=O)c3cccc(C)c3)c(-c3ccccc3)nn2C)cc1
- GI50 [1]: > 100 µM
- TGI [1]: > 100 µM
- GI50 [2]: 29.5 µM
- TGI [2]: > 100 µM
- GI50 [3]: > 100 µM
- TGI [3]: > 100 µM
- GI50 [4]: > 100 µM
- TGI [4]: > 100 µM
- GI50 [5]: > 100 µM
- TGI [5]: > 100 µM
- GI50 [6]: > 100 µM
- TGI [6]: > 100 µM
- GI50 [7]: > 100 µM
- TGI [7]: > 100 µM
- GI50 [8]: > 100 µM
- TGI [8]: > 100 µM
- GI50 [9]: > 100 µM
- TGI [9]: > 100 µM
- GI50 [10]: > 100 µM
- TGI [10]: > 100 µM
- GI50 [11]: > 100 µM
- TGI [11]: > 100 µM
- GI50 [12]: > 100 µM
- TGI [12]: > 100 µM
- GI50 [13]: > 100 µM
- TGI [13]: > 100 µM
- GI50 [14]: > 100 µM
- TGI [14]: > 100 µM
- GI50 [15]: > 100 µM
- TGI [15]: > 100 µM
- GI50 [16]: > 100 µM
- TGI [16]: > 100 µM
- GI50 [17]: > 100 µM
- TGI [17]: > 100 µM
- GI50 [18]: > 100 µM
- TGI [18]: > 100 µM
- GI50 [19]: > 100 µM
- TGI [19]: > 100 µM
- GI50 [20]: > 100 µM
- TGI [20]: > 100 µM
- GI50 [21]: > 100 µM
- TGI [21]: > 100 µM
- GI50 [22]: > 100 µM
- TGI [22]: > 100 µM
- GI50 [23]: > 100 µM
- TGI [23]: > 100 µM
- GI50 [24]: > 100 µM
- TGI [24]: > 100 µM
- GI50 [25]: > 100 µM
- TGI [25]: > 100 µM
- GI50 [26]: > 100 µM
- TGI [26]: > 100 µM
- GI50 [27]: > 100 µM
- TGI [27]: > 100 µM
- GI50 [28]: > 100 µM
- TGI [28]: > 100 µM
- GI50 [29]: > 100 µM
- TGI [29]: > 100 µM
- GI50 [30]: > 100 µM
- TGI [30]: > 100 µM
- GI50 [31]: > 100 µM
- TGI [31]: > 100 µM
- GI50 [32]: > 100 µM
- TGI [32]: > 100 µM
- GI50 [33]: > 100 µM
- TGI [33]: > 100 µM
- GI50 [34]: > 100 µM
- TGI [34]: > 100 µM
- GI50 [35]: > 100 µM
- TGI [35]: > 100 µM
- GI50 [36]: > 100 µM
- TGI [36]: > 100 µM
- GI50 [37]: > 100 µM
- TGI [37]: > 100 µM
- GI50 [38]: > 100 µM
- TGI [38]: > 100 µM
- GI50 [39]: > 100 µM
- TGI [39]: > 100 µM
- GI50 [40]: > 100 µM
- TGI [40]: > 100 µM
- GI50 [41]: > 100 µM
- TGI [41]: > 100 µM
- GI50 [42]: > 100 µM
- TGI [42]: > 100 µM
- GI50 [43]: > 100 µM
- TGI [43]: > 100 µM
- GI50 [44]: > 100 µM
- TGI [44]: > 100 µM
- GI50 [45]: > 100 µM
- TGI [45]: > 100 µM
- GI50 [46]: > 100 µM
- TGI [46]: > 100 µM
- GI50 [47]: > 100 µM
- TGI [47]: > 100 µM
- GI50 [48]: > 100 µM
- TGI [48]: > 100 µM
- GI50 [49]: > 100 µM
- TGI [49]: > 100 µM
- GI50 [50]: 8.53 µM
- TGI [50]: > 100 µM
- GI50 [51]: > 100 µM
- TGI [51]: > 100 µM
- GI50 [52]: > 100 µM
- TGI [52]: > 100 µM
- GI50 [53]: > 100 µM
- TGI [53]: > 100 µM
- GI50 [54]: 8.41 µM
- TGI [54]: > 100 µM
- GI50 [55]: > 100 µM
- TGI [55]: > 100 µM

Compound: Cc1cc2c(cc1Cl)SC1=NN(C)C(C)N1S2(=O)=O (configuration not stated)
- GI50 [1]: > 100 µM
- TGI [1]: > 100 µM
- GI50 [2]: > 100 µM
- TGI [2]: > 100 µM
- GI50 [3]: > 100 µM
- TGI [3]: > 100 µM
- GI50 [4]: > 100 µM
- TGI [4]: > 100 µM
- GI50 [5]: 96.5 µM
- TGI [5]: > 100 µM
- GI50 [6]: > 100 µM
- TGI [6]: > 100 µM
- GI50 [7]: > 100 µM
- TGI [7]: > 100 µM
- GI50 [8]: > 100 µM
- TGI [8]: > 100 µM
- GI50 [9]: > 100 µM
- TGI [9]: > 100 µM
- GI50 [56]: > 100 µM
- TGI [56]: > 100 µM
- GI50 [10]: > 100 µM
- TGI [10]: > 100 µM
- GI50 [11]: > 100 µM
- TGI [11]: > 100 µM
- GI50 [12]: > 100 µM
- TGI [12]: > 100 µM
- GI50 [14]: > 100 µM
- TGI [14]: > 100 µM
- GI50 [15]: 19.3 µM
- TGI [15]: 80.9 µM
- GI50 [16]: > 100 µM
- TGI [16]: > 100 µM
- GI50 [17]: > 100 µM
- TGI [17]: > 100 µM
- GI50 [18]: > 100 µM
- TGI [18]: > 100 µM
- GI50 [57]: > 100 µM
- TGI [57]: > 100 µM
- GI50 [19]: > 100 µM
- TGI [19]: > 100 µM
- GI50 [20]: > 100 µM
- TGI [20]: > 100 µM
- GI50 [21]: > 100 µM
- TGI [21]: > 100 µM
- GI50 [22]: > 100 µM
- TGI [22]: > 100 µM
- GI50 [23]: 36 µM
- TGI [23]: > 100 µM
- GI50 [24]: > 100 µM
- TGI [24]: > 100 µM
- GI50 [25]: > 100 µM
- TGI [25]: > 100 µM
- GI50 [26]: 71 µM
- TGI [26]: > 100 µM
- GI50 [27]: > 100 µM
- TGI [27]: > 100 µM
- GI50 [28]: > 100 µM
- TGI [28]: > 100 µM
- GI50 [29]: > 100 µM
- TGI [29]: > 100 µM
- GI50 [30]: 88.8 µM
- TGI [30]: > 100 µM
- GI50 [31]: > 100 µM
- TGI [31]: > 100 µM
- GI50 [32]: > 100 µM
- TGI [32]: > 100 µM
- GI50 [33]: 74.8 µM
- TGI [33]: > 100 µM
- GI50 [34]: > 100 µM
- TGI [34]: > 100 µM
- GI50 [35]: > 100 µM
- TGI [35]: > 100 µM
- GI50 [36]: > 100 µM
- TGI [36]: > 100 µM
- GI50 [37]: > 100 µM
- TGI [37]: > 100 µM
- GI50 [39]: 98.1 µM
- TGI [39]: > 100 µM
- GI50 [40]: > 100 µM
- TGI [40]: > 100 µM
- GI50 [41]: > 100 µM
- TGI [41]: > 100 µM
- GI50 [58]: > 100 µM
- TGI [58]: > 100 µM
- GI50 [42]: > 100 µM
- TGI [42]: > 100 µM
- GI50 [43]: > 100 µM
- TGI [43]: > 100 µM
- GI50 [44]: > 100 µM
- TGI [44]: > 100 µM
- GI50 [45]: > 100 µM
- TGI [45]: > 100 µM
- GI50 [46]: > 100 µM
- TGI [46]: > 100 µM
- GI50 [47]: 35.3 µM
- TGI [47]: > 100 µM
- GI50 [48]: 39.2 µM
- TGI [48]: > 100 µM
- GI50 [49]: > 100 µM
- TGI [49]: > 100 µM
- GI50 [50]: 95.8 µM
- TGI [50]: > 100 µM
- GI50 [51]: > 100 µM
- TGI [51]: > 100 µM
- GI50 [52]: > 100 µM
- TGI [52]: > 100 µM
- GI50 [53]: > 100 µM
- TGI [53]: > 100 µM
- GI50 [54]: > 100 µM
- TGI [54]: > 100 µM
- GI50 [55]: > 100 µM
- TGI [55]: > 100 µM
